In ChEMBL document CHEMBL3046145, “Computational and experimental evaluation of ornithine derivatives as ornithine decarboxylase inhibitors” (Med Chem Res, 2009):
Calls of active or inactive are those of the source. No cut-off for these calls is given here.

Assays:
[1] = molecular target: T1, Ornithine decarboxylase (Rattus norvegicus) (UniProt P09057); test: Inhibition of Rattus norvegicus Wistar (rat) rat liver ODC assessed as inhibition of 14CO2 release from L-[14C]ornithine
T1 sequence (whole entry): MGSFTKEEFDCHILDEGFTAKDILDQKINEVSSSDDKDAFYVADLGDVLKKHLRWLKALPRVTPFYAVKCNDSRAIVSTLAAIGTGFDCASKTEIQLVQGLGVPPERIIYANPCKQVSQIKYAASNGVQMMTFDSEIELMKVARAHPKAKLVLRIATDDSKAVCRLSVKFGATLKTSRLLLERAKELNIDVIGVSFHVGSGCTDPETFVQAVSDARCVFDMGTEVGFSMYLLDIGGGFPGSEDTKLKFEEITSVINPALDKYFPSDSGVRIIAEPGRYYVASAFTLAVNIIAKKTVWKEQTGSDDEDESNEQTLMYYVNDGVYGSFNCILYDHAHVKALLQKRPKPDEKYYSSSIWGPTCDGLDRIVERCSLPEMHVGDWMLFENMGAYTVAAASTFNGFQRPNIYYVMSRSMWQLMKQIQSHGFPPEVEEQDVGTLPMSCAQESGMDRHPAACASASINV

[2] = Toxicity in ip dosed Mus musculus CD1 (mouse) assessed as mortality; format: organism-based; details: in vivo
Ornithine decarboxylase = molecular target: T2, Ornithine decarboxylase (Homo sapiens, UniProt P11926); test: Binding affinity to ODC (unknown origin)
T2 sequence (P11926 whole entry): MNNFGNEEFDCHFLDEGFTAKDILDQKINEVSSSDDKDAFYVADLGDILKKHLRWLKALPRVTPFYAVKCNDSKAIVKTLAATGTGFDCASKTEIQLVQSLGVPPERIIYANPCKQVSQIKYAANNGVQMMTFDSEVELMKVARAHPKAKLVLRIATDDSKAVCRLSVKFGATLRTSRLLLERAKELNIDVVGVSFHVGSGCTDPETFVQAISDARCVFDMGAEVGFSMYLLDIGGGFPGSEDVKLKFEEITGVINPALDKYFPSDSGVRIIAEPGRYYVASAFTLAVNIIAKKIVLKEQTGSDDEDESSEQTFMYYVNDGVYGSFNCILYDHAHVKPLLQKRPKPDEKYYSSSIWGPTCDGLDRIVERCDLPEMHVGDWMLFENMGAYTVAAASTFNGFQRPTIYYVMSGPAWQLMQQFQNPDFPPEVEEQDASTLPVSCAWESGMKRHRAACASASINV

Rattus norvegicus = species: Rattus norvegicus; test: Toxicity in Rattus norvegicus (rat); format: organism-based; details: in vivo

SMILES: N[C@@H](CCCNC(=O)CCl)C(=O)O
- inhibition [1]: Active
- LD50 [2]: 381 mg/kg
- Kd (Ornithine decarboxylase): 2500 µM

SMILES: NCCC[C@](N)(C(=O)O)C(F)F [EFLORNITHINE, (S)-]
- LD50 (Rattus norvegicus): 300 µg

SMILES: NCCC[C@H](N)C(=O)O [ORNITHINE]
- Kd (Ornithine decarboxylase): 250 µM

SMILES: NCCC[C@@](N)(CF)C(=O)O
- Kd (Ornithine decarboxylase): 75 µM

SMILES: NCCC[C@H](NN)C(=O)O [ALPHA-HYDRAZINE ORNITHINE]
- Kd (Ornithine decarboxylase): 0.5 µM
